The values below come from patent US12091423B2, “Substituted 3,4,12,12a-tetrahydro-1H-[1,4]oxazino[3,4-c]pyrido[2,1-f][1,2,4]triazine-6,8-dione, pharmaceutical composition, method for the production and use thereof” (VIRIOM, INC., priority 2019, dated 2024).

A word on the EC50: it is the concentration at which the effect is half-maximal.

For the assay, the system named is influenza A/Perth/265/2009 (H1N1pdm09) (H275Y). Format: cell-based, influenza A virus.

Molecules are shown by their SMILES.

Consider `O=C1c2c(O)c(=O)ccn2N([C@@H]2c3ccc(F)c(F)c3CSc3ccsc32)[C@@H]2COCCN12` [1.3.2, (12aR)-7-hydroxy-12-[(10R)-6,7-difluoro-5,10-dihydrothieno[3,2-c][2]benzothiepin-10-yl]-3,4,12,12a-tetrahydro-1H-[1,4]oxazino[3,4-c]pyrido[2,1-f][1,2,4]triazine-6,8-dione], for which the EC50 stood at 0.8 nM.
